The nature of data set [1]: Characterization of lipid nanoparticles encapsulating Fluc-mRNA prepared from different cap structures. The class given is physicochemical. The settings on record: for Particle size: LNP (YK-009/DSPC/cholesterol/DMG-PEG2000) with Fluc-mRNA transcribed using the named cap analog; for PDI: LNP with Fluc-mRNA transcribed using the named cap analog; for EE: encapsulation efficiency of LNP with Fluc-mRNA transcribed using the named cap analog. Here is the method:
Cationic lipid YK-009 (Beijing Youcare Kechuang Pharmaceutical Technology Co., Ltd.), DSPC (AVT (Shanghai) Pharmaceutical Technology Co., Ltd.), cholesterol (AVT (Shanghai) Pharmaceutical Technology Co., Ltd.), and DMG-PEG2000 were dissolved in ethanol at a molar ratio of 49:10:39.5:1.5, and the mRNA was diluted in 50 mM citrate buffer (pH=4). The ethanol lipid solution was mixed with the Fluc-mRNA aqueous solution prepared from different cap structures at a volume ratio of 1:3 using a microfluidic device at a flow rate of 10 mL/min to prepare LNPs at a weight ratio of total lipid to mRNA of approximately 15:1.
The resulting liposomes were diluted to 10-fold volume with PBS, and then ultrafiltered with a 300 KDa ultrafiltration tube to remove ethanol. The volume was then fixed to a certain volume with PBS. Finally, the LNPs were filtered through a 0.2 μm sterile filter to obtain an LNP preparation encapsulating Fluc-mRNA using YK-009/DSPC/cholesterol/DMG-PEG2000 (at a molar ratio of 49:10:39.5:1.5).
The particle size and polydispersity index (PDI) were determined by dynamic light scattering using a Malvern laser particle size analyzer. 10 μL of the liposome solution was taken, diluted to 1 mL with RNase-free deionized water, and added to a sample pool. Each sample was measured in triplicate. The measurement conditions were: a scattering angle of 90° and a temperature of 25° C. The encapsulation efficiency of LNPs was determined using the Quant-iT RiboGreen RNA Quantification Kit (Thermo Fisher Scientific, UK) according to the manufacturer's instructions.

In another data set the test system is HEK293T cells. The data set can be described thus: Translation efficiency of different capped luciferase mRNAs. The note with it: for Relative fluorescence intensity: HEK293T, 0.5 μg mRNA per well, 24 hours, proportional to translation efficiency; for Multiple of m6A (relative fluorescence intensity): relative to m6A; for Relative fluorescence intensity, times that of HN3002: relative to HN3002; for Relative fluorescence intensity, times that of N-7113: relative to N-7113; for Relative fluorescence intensity (translation efficiency), times that of YK-CAP-101: relative to YK-CAP-101; for Relative fluorescence intensity, times that of YK-CAP-102: relative to YK-CAP-102; for Relative fluorescence intensity, times that of YK-CAP-103: relative to YK-CAP-103; for Relative fluorescence intensity, times that of YK-CAP-104: relative to YK-CAP-104; for Relative fluorescence intensity, times that of YK-CAP-105: relative to YK-CAP-105; for Relative fluorescence intensity, times that of compound 14: relative to compound 14. The class given is cell-based. Here is the method:
• (1) HEK293T cells were cultured in DMEM medium containing 10% FBS and penicillin/streptomycin at 37° C. with 5% CO2. • (2)Cells in the culture dish were digested and counted, then spread in a 96-well plate at 10,000 cells per well, and cultured overnight until the cells adhered to the wall. • (3) When the cell density reached approximately 80%, transfection was performed by adding 0.5 μg of mRNA sample and Lipofectamine MessengerMAX Transfection Reagent (Invitrogen) per well according to the manufacturer's instructions. • (4) After the transfected cells were cultured at 37° C. with 5% CO2 for 24 hours, the growth medium was removed from the cells to be tested, and the cells were rinsed with PBS. After centrifugation to remove PBS, 50 μL of 1× lysis buffer was added. The cells and all liquid were transferred to a microcentrifuge tube and centrifuged. • (5) 20 μL of sample was taken and added to 100 μL of Dual-Lumi™ II Luciferase Assay Reagent pre-equilibrated to room temperature, and mixed appropriately. • (6) The mixture was incubated at room temperature (approximately 25° C.) for 5 minutes to stabilize the luminescence signal. Chemiluminescence was detected using a multifunctional microplate reader with a function for detecting chemiluminescence, and the data were recorded.
The relative fluorescence intensity is proportional to the translation efficiency of mRNA.

In data set [1], `CO[C@@H]1[C@H](OP(=O)(O)OC[C@H]2O[C@@H](n3cnc4c(=O)[nH]c(N)nc43)[C@H](O)[C@@H]2O)[C@@H](COP(=O)(O)OP(=O)(O)OP(=O)(O)OC[C@@]2(CF)O[C@@H]([n+]3cn(C)c4c(=O)[nH]c(N)nc43)[C@H](O)[C@@H]2O)O[C@H]1n1cnc2c(N)ncnc21` [YK-CAP-118] came in with a Particle size of 75.84 nm, a PDI of 0.055 and an EE of 97.2%. Also, in the data set on HEK293T cells, the Relative fluorescence intensity was 1.65 and the “Multiple of m6A (relative fluorescence intensity)” value stood at 4.3.
The corresponding values for `CO[C@@H]1[C@H](OP(=O)(O)OC[C@H]2O[C@@H](n3cnc4c(=O)[nH]c(N)nc43)[C@H](O)[C@@H]2O)[C@@H](COP(=O)(O)OP(=O)(O)OP(=O)(O)OC[C@H]2OC([n+]3cn(C)c4c(=O)[nH]c(N)nc43)[C@H](O)[C@@H](O)[C@@H]2O)O[C@H]1n1cnc2c(N)ncnc21` (some centres unmarked) [YK-CAP-101] are 75.45 nm, 0.043, 93.4%, 0.22 and 0.6.
The corresponding values for `COC[C@@H]1[C@H](OP(=O)(O)OC[C@H]2O[C@@H](n3cnc4c(=O)[nH]c(N)nc43)[C@H](O)[C@@H]2O)[C@@H](COP(=O)(O)OP(=O)(O)OP(=O)(O)OC[C@H]2O[C@@H]([n+]3cn(C)c4c(=O)[nH]c(N)nc43)[C@H](O)[C@@H]2O)O[C@H]1n1cnc2c(N)ncnc21` [YK-CAP-113] are 79.34 nm, 0.043, 96.1%, 1.63 and 4.3.
In data set [1], `CO[C@@H]1[C@H](OP(=O)(O)OC[C@H]2O[C@@H](n3cnc4c(=O)[nH]c(N)nc43)[C@H](O)[C@@H]2O)[C@@H](COP(=O)(O)OP(=O)(O)OP(=O)(O)OC[C@H]2O[C@@H]([n+]3cn(C)c4c(=O)[nH]c(N)nc43)[C@H](O)[C@@H]2C(F)F)O[C@H]1n1cnc2c(N)ncnc21` [YK-CAP-110] came in with a Particle size of 69.64 nm, a PDI of 0.033 and an EE of 97.7%. Besides, in the data set with HEK293T cells, the Relative fluorescence intensity is recorded as 1.95; the “Relative fluorescence intensity, times that of HN3002” value came out at 1.7 times; the “Relative fluorescence intensity, times that of N-7113” value came out at 1.9 times; the “Relative fluorescence intensity (translation efficiency), times that of YK-CAP-101” value came out at 8.9 times. In the data set on HEK293T cells, the “Relative fluorescence intensity, times that of YK-CAP-102” value came out at 5.7 times; the “Relative fluorescence intensity, times that of YK-CAP-103” value turned out to be 2.5 times; the “Relative fluorescence intensity, times that of YK-CAP-104” value worked out at 2.4 times; the “Relative fluorescence intensity, times that of YK-CAP-105” value turned out to be 2.7 times. In addition, in the data set with HEK293T cells, the “Relative fluorescence intensity, times that of compound 14” value is 1.7 times and the “Multiple of m6A (relative fluorescence intensity)” value is on record as 5.1.
In data set [1], `CCN(CC)C(=O)[C@H]1[C@@H](O)[C@H]([n+]2cn(C)c3c(=O)[nH]c(N)nc32)O[C@@H]1COP(=O)(O)OP(=O)(O)OP(=O)(O)OC[C@H]1O[C@@H](n2cnc3c(N)ncnc32)[C@H](OC)[C@@H]1OP(=O)(O)OC[C@H]1O[C@@H](n2cnc3c(=O)[nH]c(N)nc32)[C@H](O)[C@@H]1O` [YK-CAP-111] yielded a Particle size of 78.33 nm, a PDI of 0.053 and an EE of 95.1%. Moreover, in the data set on HEK293T cells, the Relative fluorescence intensity stood at 2.12; the “Relative fluorescence intensity, times that of HN3002” value stood at 1.9 times; the “Relative fluorescence intensity, times that of N-7113” value is given as 2.1 times; the “Relative fluorescence intensity (translation efficiency), times that of YK-CAP-101” value turned out to be 9.6 times. For the same molecule, in the data set on HEK293T cells, the “Relative fluorescence intensity, times that of YK-CAP-102” value is recorded as 6.2 times; the “Relative fluorescence intensity, times that of YK-CAP-103” value came to 2.8 times; the “Relative fluorescence intensity, times that of YK-CAP-104” value is on record as 2.6 times; the “Relative fluorescence intensity, times that of YK-CAP-105” value stood at 2.9 times. In addition, in the data set on HEK293T cells, the “Relative fluorescence intensity, times that of compound 14” value stood at 1.9 times and the “Multiple of m6A (relative fluorescence intensity)” value is recorded as 5.6.
As to `CO[C@@H]1[C@H](OP(=O)(O)OC[C@H]2O[C@@H](n3cnc4c(=O)[nH]c(N)nc43)[C@H](O)[C@@H]2O)[C@@H](COP(=O)(O)OP(=O)(O)OP(=O)(O)OC[C@H]2O[C@@H]([n+]3cn(C)c4c(=O)[nH]c(N)nc43)[C@H](O)[C@@H]2C(C)F)O[C@H]1n1cnc2c(N)ncnc21` (some centres unmarked) [YK-CAP-109], in data set [1], the Particle size amounted to 86.35 nm, the PDI amounted to 0.035 and the EE was 97.2%. Moreover, in the data set on HEK293T cells, the Relative fluorescence intensity amounted to 1.53 and the “Multiple of m6A (relative fluorescence intensity)” value was determined as 4.0.
For `CO[C@@H]1[C@H](OP(=O)(O)OC[C@H]2O[C@@H](n3cnc4c(=O)[nH]c(N)nc43)[C@H](O)[C@@H]2O)[C@@H](COP(=O)(O)OP(=O)(O)OP(=O)(O)OC[C@H]2O[C@@H]([n+]3cn(C)c4c(=O)[nH]c(N)nc43)[C@H](O)[C@]2(C)NC(C)=O)O[C@H]1n1cnc2c(N)ncnc21` [YK-CAP-106], in data set [1], the Particle size is 68.24 nm, the PDI stood at 0.048 and the EE worked out at 97.1%. Besides, in the data set on HEK293T cells, the Relative fluorescence intensity is reported as 1.53 and the “Multiple of m6A (relative fluorescence intensity)” value is listed as 4.0.
The corresponding values for `CO[C@@H]1[C@H](OP(=O)(O)OC[C@H]2O[C@@H](n3cnc4c(=O)[nH]c(N)nc43)[C@H](O)[C@@H]2O)[C@@H](COP(=O)(O)OP(=O)(O)OP(=O)(O)OC[C@H]2O[C@@H]([n+]3cn(C)c4c(=O)[nH]c(N)nc43)[C@H](O)[C@@H]2C(C)NC(C)=O)O[C@H]1n1cnc2c(N)ncnc21` (some centres unmarked) [YK-CAP-108] are 83.13 nm, 0.023, 96.4%, 1.43 and 3.8.
The corresponding values for `COC[C@]1(COP(=O)(O)OP(=O)(O)OP(=O)(O)OC[C@H]2O[C@@H](n3cnc4c(N)ncnc43)[C@H](OC)[C@@H]2OP(=O)(O)OC[C@H]2O[C@@H](n3cnc4c(=O)[nH]c(N)nc43)[C@H](O)[C@@H]2O)O[C@@H]([n+]2cn(C)c3c(=O)[nH]c(N)nc32)[C@H](O)[C@@H]1O` [YK-CAP-117] are 72.56 nm, 0.044, 94.3%, 1.82 and 4.8.
On the same counts, the results for `CO[C@@H]1[C@H](OP(=O)(O)OC[C@H]2O[C@@H](n3cnc4c(=O)[nH]c(N)nc43)[C@H](O)[C@@H]2O)[C@@H](COP(=O)(O)OP(=O)(O)OP(=O)(O)OC[C@@]2(C(F)F)O[C@@H]([n+]3cn(C)c4c(=O)[nH]c(N)nc43)[C@H](O)[C@@H]2O)O[C@H]1n1cnc2c(N)ncnc21` [YK-CAP-119] are 82.45 nm, 0.057, 94.6%, 1.45 and 3.8.
Take `CO[C@@H]1[C@H](OP(=O)(O)OC[C@H]2O[C@@H](n3cnc4c(=O)[nH]c(N)nc43)[C@H](O)[C@@H]2O)[C@@H](COP(=O)(O)OP(=O)(O)OP(=O)(O)OC[C@@]2(OC)O[C@@H]([n+]3cn(C)c4c(=O)[nH]c(N)nc43)[C@H](O)[C@@H]2O)O[C@H]1n1cnc2c(N)ncnc21` [compound 5227, reference compound]: in data set [1], the Particle size was 83.34 nm, the PDI is listed as 0.028 and the EE was 94.9%. Besides, in the data set on HEK293T cells, the Relative fluorescence intensity is 0.82 and the “Multiple of m6A (relative fluorescence intensity)” value came to 2.2.

Values taken from patent US12576099B2, “Ribose-modified cap analog and use thereof” (Beijing Youcare Kechuang Pharmaceutical Technology Co., Ltd., priority 2024, dated 2026).
